# Measured values as given in patent publication US11408891B2, “Imaging agent” (University of Lancaster, priority 2017, dated 2022).
# Read-outs that look alike come from different tables or passages of the source.
# Assays:
# [1] = test system: peroxisomes in HaCaT cells
# Description: FIG. 1: Chemical structure of a compound of the invention (and the compound referred to in the figures for example as the platinum complex) and confocal micrograph of HaCaT cells after 10 minutes exposure to 25 μg/ml of the platinum complex (ex 405 nm, emission 505-740 nm). […] A compound of the invention may be prepared as a salt, for example as a sodium salt as described herein, and is used as an imaging agent in a buffer solution. HaCaT cells were grown on glass coverslips under the same conditions as in described in Steel 2015 referred to herein. […] The coverslips were then washed in PBS and mounted by inversion on a glass slide. Images were captured on a Zeiss LSM 850 Meta laser scanning confocal microscope.
# [2] = test system: peroxisomes (pDsRed2-Peroxi Vector labelled compartments); conditions: photo-bleaching at 514 nm, complex excited at 405 nm (FIG. 4)
# Description: FIG. 4: Co-localisation experiment with Clontech pDsRed2-Peroxi Vector. […] Fluorescence micrographs of co-localisation experiment i) Excited at 405 nm pre-photo-bleaching; ii) excited at 514 nm pre photo-bleaching iii) excited at 514 nm post photo-bleaching; iv) Excited at 405 nm post photo-bleaching. HaCaT cells were grown on glass coverslips under the same conditions as in described in Steel 2015 referred to herein. […] The coverslips were then washed in PBS and mounted by inversion on a glass slide. Images were captured on a Zeiss LSM 850 Meta laser scanning confocal microscope.
# HaCaT cells = HaCaT cells with and without microtubule-depolymerising levels of nocodazole (FIG. 2)
# Description: HaCaT cells were grown on glass coverslips under the same conditions as in described in Steel 2015 referred to herein. […] The coverslips were then washed in PBS and mounted by inversion on a glass slide. Images were captured on a Zeiss LSM 850 Meta laser scanning confocal microscope.
# [3] = PBS containing compound at 125 μg/ml, 10 minutes at 4° C.
substance,measurement,setting,value
PtMe3bpy-S-glutathione [compound A],staining pattern,"[1]; 10 minutes exposure to 25 μg/ml, ex 405 nm, emission 505-740 nm (FIG. 1)",punctate pattern
same,staining pattern,[1]; [3],"punctate staining pattern, characteristic of peroxisomes"
same,uptake by cells,[1]; [3],readily taken up by cells
same,co-localisation with peroxisome marker,[2],platinum complex emission was retained in the same cellular compartments
same,motility of the stained compartments,HaCaT cells,microtubule-dependent motility
